Results reported in patent US11377656B2, “Chemically modified messenger RNA's” (Novartis AG, priority 2016, dated 2022).

Tests used:
T7 RNA polymerase = T7 RNA polymerase (Escherichia phage T7, UniProt P00573); test: In vitro transcription (IVT) of mRNA with modified NTP; assay type: biochemical; conditions: modified NTP at 100% substitution of the corresponding natural nucleotide; human leptin template; yield as percent of unmodified mRNA yield
Text: The modified synthetic mRNA was generated by in vitro transcription (IVT) incorporating the chemically modified nucleotide triphosphate (NTP) at 100% substitution of the corresponding natural nucleotide. The IVT plasmid template used contained a T7 promoter sequence and the human leptin coding sequence (Protein Accession #NP_000221) flanked by a 5′ untranslated region (UTR) of Tobacco Etch Virus with a strong Kozak sequence, and 2 tandem copies of the human beta-globin 3′UTR (Holtkamp S et al. (2006) Blood 108: 4009-4017) followed by a poly-A tail comprising 120 nucleotides in length.
A typical in vitro transcription reaction was done using the following protocol:
The IVT reagents in the Table above were mixed and incubated for 1-2 hours at 37° C. The DNA template was then digested with 0.04 U/μL DNase (New England Biolabs), and incubated for 30 minutes at 37° C. The mRNA was precipitated by adding lithium chloride (LiCl) solution (Ambion, Cat. #AM9480) to a final concentration of 2.81 M and incubating for >1 hour at −20° C. The mixture was centrifuged at 20,000×g for 15 minutes at 4° C., and then the supernatant was removed and the pellet washed with 70% ethanol. After centrifugation for 10 minutes, the ethanol was removed and the pellet was resuspended in nuclease-free water. In cases where the mRNA is used for HPLC purification, a second precipitation was done by adding 10% volume of 3 M sodium acetate pH 5.5 and 1 volume of room temperature isopropanol followed by incubation overnight at −20° C. The mRNA was centrifuged, washed and resuspended as described above. mRNA concentration was quantified using the NanoDrop and analyzed using an Agilent 2100 Bioanalyzer to confirm proper size and quality (i.e. no degradation). The modified mRNA can then be stored at −80° C. until capping.

HEK293 cells = test: Modified mRNA transfection and in vitro translation (secreted leptin ELISA); assay type: cell-based; conditions: 1.5 micrograms capped leptin mRNA, Lipofectamine 2000, secreted leptin in medium at 24 h post-transfection
Protocol: Prior to transfection, the cells were seeded at a density 5×10^5 cells per well in 6-well plates. The following day, 1.5 micrograms of capped unmodified or chemically modified leptin mRNA was complexed with Lipofectamine 2000 (Life Technologies) and transfected into cells according to the manufacturer's protocol. At 24 h post-transfection, secreted leptin protein concentration in the culture medium was measured by an Enzyme-linked immunosorbent assay (ELISA) using the Human Leptin Quantikine ELISA kit from R&D Systems (Minneapolis, Minn.). Protein expression levels for chemically modified mRNAs are shown as a percent of the unmodified mRNA level.

Chain of T7 RNA polymerase (P00573 whole entry): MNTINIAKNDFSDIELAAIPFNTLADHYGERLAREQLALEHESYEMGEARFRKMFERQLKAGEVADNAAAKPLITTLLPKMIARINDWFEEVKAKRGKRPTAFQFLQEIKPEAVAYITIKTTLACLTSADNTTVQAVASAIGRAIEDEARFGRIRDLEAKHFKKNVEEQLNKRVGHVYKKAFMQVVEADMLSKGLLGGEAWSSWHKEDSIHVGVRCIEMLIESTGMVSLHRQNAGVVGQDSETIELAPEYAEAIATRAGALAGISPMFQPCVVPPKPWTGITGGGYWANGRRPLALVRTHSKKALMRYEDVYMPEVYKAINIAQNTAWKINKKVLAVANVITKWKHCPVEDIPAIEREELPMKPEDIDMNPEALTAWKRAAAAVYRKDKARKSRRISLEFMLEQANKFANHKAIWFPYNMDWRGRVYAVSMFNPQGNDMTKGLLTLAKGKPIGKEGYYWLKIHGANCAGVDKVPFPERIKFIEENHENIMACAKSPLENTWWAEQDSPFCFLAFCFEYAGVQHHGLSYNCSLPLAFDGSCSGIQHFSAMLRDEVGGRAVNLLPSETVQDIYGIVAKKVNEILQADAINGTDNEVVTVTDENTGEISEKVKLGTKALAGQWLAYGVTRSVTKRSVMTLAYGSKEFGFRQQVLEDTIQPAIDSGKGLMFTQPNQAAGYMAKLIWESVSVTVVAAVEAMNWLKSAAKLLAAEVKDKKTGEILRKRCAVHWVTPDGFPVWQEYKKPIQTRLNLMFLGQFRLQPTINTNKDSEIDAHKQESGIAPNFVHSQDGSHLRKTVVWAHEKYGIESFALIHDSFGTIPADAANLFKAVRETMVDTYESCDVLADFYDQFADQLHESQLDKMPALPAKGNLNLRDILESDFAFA

Row | Substance | In vitro transcription (mRNA quantity relative to unmodified NTP in percentage) (T7 RNA polymerase) | In vitro translation (Protein quantity relative to unmodified mRNA in percentage) (HEK293 cells)
1 | 1-methoxyethyl-pseudouridine [compound 11] | >50% | <50%
2 | 1-methyoxymethyl-pseudouridine [compound 10] | >50% | >50%
3 | 5-methoxycarbonyamino-uridine [compound 5] | >50% | <50%
4 | 7-methyl-9-deazaguanosine [compound 16] | >50% | <50%
